In the case of `Oc1cccc2cccnc12` [8-hydroxyquinoline], the “solubility in aqueous solution” value is reported as “generally insoluble or only poorly soluble”.

From US20080177075A1, “Compositions For Progeny Gender Control” (AQ+PLC Stephen Mabbott Associates, priority 2004, published 2008)
